According to patent US20170280722A1, “COMPOSITIONS AND METHODS FOR CONTROL OF SAND FLIES AND OTHER BLOOD SUCKING INSECTS” (GENESIS LABORATORIES, INC., priority 2010, published 2017):

Legend:
Assay type in all cases: in vivo
[1] = system: P. argentipes first instar larvae; assay: Larval bioassay with feces of fipronil treated B. bengalensis; settings: for Mean ± SEM survival (days) of P. argentipes larvae during exposure to treated feces D-1 / Mean ± SEM survival (days) of P. argentipes larvae during exposure to treated feces D-5 / Mean ± SEM survival (days) of P. argentipes larvae during exposure to treated feces D-10 / Mean ± SEM survival (days) of P. argentipes larvae during exposure to treated feces D-20: B. bengalensis; for Mean ± SEM survival (days) of P. argentipes larvae during exposure to treated feces D-1: feces 1 day post-treatment; for Mean ± SEM survival (days) of P. argentipes larvae during exposure to treated feces D-5: feces 5 days post-treatment; for Mean ± SEM survival (days) of P. argentipes larvae during exposure to treated feces D-10: feces 10 days post-treatment; for Mean ± SEM survival (days) of P. argentipes larvae during exposure to treated feces D-20: feces 20 days post-treatment
Method: (§1) The B. bengalensis fipronil study was conducted in two portions. In the first of the two segments, three randomly selected B. bengalensis were offered a fipronil (250 ppm) treated diet at 25 g daily. One rat served as control and was fed an untreated diet. In the second portion of the study, the remaining animals were randomly divided into two groups of two. Two individuals in the first group were offered 25 g of 100 ppm fipronil-treated feed each and two rats in the second group were each offered 25 g of 50 ppm fipronil-treated diet. One rat served as control and was fed an untreated diet.
(§2) Test animals were provided treated feed for two consecutive days. Diets were prepared by utilizing locally available poultry feed treated with technical grade fipronil to predetermined concentrations. Consumption was calculated daily, feed refilled to a predetermined level of 25 g, and feces cleared. At the end of the second day, treated feed was cleared, final consumption weighed, and feed replaced with untreated locally available poultry feed. Feces were collected, noted as day-1 post-treatment and properly stored for use in assays. Observation of test animals continued for twenty days post-treatment, with additional collection of feces for testing conducted 5, 10, and 20 days post-treatment. On days when fecal collection occurred, all newspaper/bedding was replaced at 0800 hours and feces collected at the end of the day for preservation. Collected feces were dried overnight at approximately 40° C., ground into a fine powder with a pestle and mortar and frozen at −20° C. until larval bioassays were initiated.
Larval bioassay jars were prepared using 48 mm, 100 g round Dibbi jars (Pearlpet, Pearl Polymers LTD., New Delhi, India). Jars were prepared by burning three small holes into the bottom of the container with a soldering iron. A thin layer (approximately 5 mm) of plaster of Paris was cast on the bottom and wetted to ensure humidity and softening of the test diet. To simplify mortality counts, the plaster was quartered, and each quadrant numbered one through four, using an ultra fine black marker. The lids of the jars were punctured with 15-20 small holes using a heated 24-gauge hypodermic needle.
Each bioassay jar was loaded with ten one to two day old first instar P. argentipes larvae. Approximately 5 mg treated feces were sprinkled evenly over the plaster. Larval bioassay samples were maintained in a controlled environment at approximately 24° C. with relative humidity maintained at approximately 80% through daily moistening of paper towels underneath the jars. Any observed mold or mites were removed during each day's observation. Each bioassay group included one control jar with larvae provided standard larval food consisting of rabbit feed, rabbit pellets, and dried chicken blood which were mixed, dried, composted, and crushed. Mortality counts of larvae were conducted every 24 hours post-exposure until 100% mortality or pupation was observed. Larvae were considered dead if no physical response was observed within 15 seconds of light stimulation with a blunt probe.

[2] = Cattle dosing, observation for adverse effects; settings: 0.5, 1.0, 2.0, and 4.0 mg/kg body weight, single oral dose
Method: The test substance was given to the cattle orally as a single application. The oral treatment was by hand. Because the oral treatment was delivered in capsule form the dosage was very precise.
The observation period can be extended, if necessary based on drug persistence data and residue analysis. The first day of dose application was designated as day 0.
The four dose levels of fipronil for the treatment groups used in this study were as follows: 0.5, 1.0, 2.0 and 4.0 mg/kg. These were weighed with an analytical balance to the nearest 0.01 g and presented in gelatin capsules.
Body weights were recorded individually for all animals during randomization, at the beginning of each week (Monday) during the study period, and at the termination of the study.

adult P. argentipes = assay: Adult sand fly bioassay, bloodfeeding on fipronil treated B. bengalensis; settings: for Time after 1 hour exposure to 100% mortality of adult P. argentipes: bloodfeeding 20 days after treatment; for Adult sand fly mortality: across treatment groups
Method: as §1, §2
Adult sand fly bioassays were conducted 1, 5, 10 and 20 days post feed-through treatment of B. bengalensis. B. bengalensis were anesthetized with 15 units of ketamine (KetaJet 50, SterFil Laboratories Pvt. Ltd., Ankleshwar, India) via intramuscular injection. The belly of each rat was shaved using an electric razor and a mesh covered plastic capsule (20 mm diameter, 25 mm height) containing 20 adult female and 5 adult male P. argentipes was affixed to the shaved area with medical tape. The capsules had about 10 small holes burned into the top with a heated 24 gauge needle. Capsules remained in place for one hour, covered with a light cloth to maintain warmth and reduce light. At the end of one hour, the capsules were removed and observations for mortality conducted immediately, at 12 hours post-feeding, and every 24 hours thereafter for up to 5 days post-exposure. Partially fed sand flies were included in analyses as “bloodfed” specimens. Unfed sand flies were removed, and bloodfed sand flies were observed collectively by treatment group.

For `N#Cc1nn(-c2c(Cl)cc(C(F)(F)F)cc2Cl)c(N)c1[S+]([O-])C(F)(F)F` (stereo not drawn) [fipronil], the “Mean ± SEM survival (days) of P. argentipes larvae during exposure to treated feces D-1” value ([1]; 50 ppm) was 2.66 ± 0.18 days, the “Mean ± SEM survival (days) of P. argentipes larvae during exposure to treated feces D-5” value ([1]; 50 ppm) was 4.03 ± 0.27 days and the “Mean ± SEM survival (days) of P. argentipes larvae during exposure to treated feces D-10” value ([1]; 50 ppm) was 4.06 ± 0.29 days. The “Mean ± SEM survival (days) of P. argentipes larvae during exposure to treated feces D-20” value ([1]; 50 ppm) was 6.36 ± 0.36 days, the “Mean ± SEM survival (days) of P. argentipes larvae during exposure to treated feces D-1” value ([1]; 100 ppm) was 2.23 ± 0.11 days and the “Mean ± SEM survival (days) of P. argentipes larvae during exposure to treated feces D-5” value ([1]; 100 ppm) was 3.73 ± 0.23 days. The “Mean ± SEM survival (days) of P. argentipes larvae during exposure to treated feces D-10” value ([1]; 100 ppm) was 3.70 ± 0.16 days, the “Mean ± SEM survival (days) of P. argentipes larvae during exposure to treated feces D-20” value ([1]; 100 ppm) was 3.82 ± 0.21 days and the “Mean ± SEM survival (days) of P. argentipes larvae during exposure to treated feces D-1” value ([1]; 250 ppm) was 3.37 ± 0.20 days. The “Mean ± SEM survival (days) of P. argentipes larvae during exposure to treated feces D-5” value ([1]; 250 ppm) was 5.13 ± 0.27 days, the “Mean ± SEM survival (days) of P. argentipes larvae during exposure to treated feces D-10” value ([1]; 250 ppm) was 2.28 ± 0.10 days and the “Mean ± SEM survival (days) of P. argentipes larvae during exposure to treated feces D-20” value ([1]; 250 ppm) was 2.20 ± 0.10 days. For the same compound, the “Days of exposure to achieve 100% mortality” value ([1]; feces 5 days after treatment, 50 ppm) was 7 days, the Larval mortality ([1]; feces 5 days after treatment, 50 ppm, after 2 days of exposure) was 23% and the “Days of exposure to achieve 100% mortality” value ([1]; feces 5 days after treatment, 100 ppm) was 7 days. The Larval mortality ([1]; feces 5 days after treatment, 100 ppm, after 2 days of exposure) was 22%, the “Days of exposure to achieve 100% mortality” value ([1]; feces 5 days after treatment, 250 ppm) was 8 days and the Larval mortality ([1]; feces 5 days after treatment, 250 ppm, after 3 days of exposure) was 23%. For the same compound, the “Days of exposure to achieve 100% mortality” value ([1]; feces 10 days after treatment, 50 ppm) was 9 days, the Larval mortality ([1]; feces 10 days after treatment, 50 ppm, after 2 days of exposure) was 16% and the Larval mortality ([1]; feces 10 days after treatment, 50 ppm, after 6 days of exposure) was 95%. For the same compound, the “Days of exposure to achieve 100% mortality” value ([1]; feces 10 days after treatment, 100 ppm) was 5 days, the Larval mortality ([1]; feces 10 days after treatment, 100 ppm, after 2 days of exposure) was 6% and the “Days of exposure to achieve 100% mortality” value ([1]; feces 10 days after treatment, 250 ppm) was 4 days. For the same compound, the Larval mortality ([1]; feces 10 days after treatment, 250 ppm, after 2 days of exposure) was 78%, the “Days of exposure to achieve 100% mortality” value ([1]; feces 20 days after treatment, 50 ppm) was 10 days and the “Days of exposure to achieve 100% mortality” value ([1]; feces 20 days after treatment, 100 ppm) was 6 days. For the same compound, the Larval mortality ([1]; feces 20 days after treatment, 100 ppm (so in the source), after 3 days of exposure) was 7%, the Larval mortality ([1]; feces 20 days after treatment, 100 ppm, after 2 days of exposure) was 14% and the “Days of exposure to achieve 100% mortality” value ([1]; feces 20 days after treatment, 250 ppm) was 4 days. The Larval mortality ([1]; feces 20 days after treatment, 250 ppm, after 2 days of exposure) was 85%, the Knockdown of larvae ([1]; feces collected 20 days after the rodents were treated) was “Quick knockdown” and the “Days of exposure to achieve 100% mortality” value ([1]; feces day 1 post-treatment, 50 ppm) was 5 days. For the same compound, the Larval mortality ([1]; feces day 1 post-treatment, 50 ppm, after 1 day of exposure) was 4%, the “Days of exposure to achieve 100% mortality” value ([1]; feces day 1 post-treatment, 100 ppm) was 4 days and the Larval mortality ([1]; feces day 1 post-treatment, 100 ppm, after 1 day of exposure) was 8%. For the same compound, the “Days of exposure to achieve 100% mortality” value ([1]; feces day 1 post-treatment, 250 ppm) was 6 days, the Larval mortality ([1]; feces day 1 post-treatment, 250 ppm, after 2 days of exposure) was 18% and the “Adverse effect from dosing the cattle” value [2] was “no observed adverse effect”. The “Mortality of bloodfeeding adult P. argentipes” value (adult P. argentipes; bloodfed on rodents treated as much as 20 days previously, all treatment levels) was 100%, the “Time after 1 hour exposure to 100% mortality of adult P. argentipes” value (adult P. argentipes; 50 ppm) was 5 days and the “Time after 1 hour exposure to 100% mortality of adult P. argentipes” value (adult P. argentipes; 100 ppm) was 3 days. For the same compound, the “Time after 1 hour exposure to 100% mortality of adult P. argentipes” value (adult P. argentipes; 250 ppm) was 4 days, the “Adult sand fly mortality” value (adult P. argentipes; bloodfeeding on rodents 1 day after treatment) was 100% and the “Adult sand fly mortality” value (adult P. argentipes; bloodfeeding on rodents 5 days after treatment) was 100%. For the same compound, the “Time to death of adult sand flies” value (adult P. argentipes; day 1, all treatment groups (50 ppm, 100 ppm, and 250 ppm)) was “dead by the end of the one hour exposure period”, the “Time to 100% mortality of adult sand flies” value (adult P. argentipes; day 5, 50 ppm treatment group) was 24 h and the “Time to death of adult sand flies” value (adult P. argentipes; day 5, 250 and 100 ppm treatment groups) was “dead by the end of the one hour exposure period”.
